In PubChem BioAssay (NCI):
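Each compound was tested at five concentrations against cells in 96-well plates for 48 hours. At the TGI there is no net growth.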

Legend:
Test in all cases: DTP human tumour cell line panel, 48 h
IGROV1 ovarian = system: IGROV1 ovarian
T-47D breast = system: T-47D breast
LOX IMVI melanoma = system: LOX IMVI melanoma
MDA-N = system: MDA-N
EKVX NSCLC = system: EKVX NSCLC
M14 melanoma = system: M14 melanoma
SNB-75 CNS = system: SNB-75 CNS
SF-295 CNS = system: SF-295 CNS
SF-539 CNS = system: SF-539 CNS
SNB-19 CNS = system: SNB-19 CNS
HCT-116 colon = system: HCT-116 colon
UO-31 renal = system: UO-31 renal
786-0 renal = system: 786-0 renal
SF-268 CNS = system: SF-268 CNS
OVCAR-3 ovarian = system: OVCAR-3 ovarian
OVCAR-4 ovarian = system: OVCAR-4 ovarian
KM12 colon = system: KM12 colon
HOP-62 NSCLC = system: HOP-62 NSCLC
OVCAR-8 ovarian = system: OVCAR-8 ovarian
TK-10 renal = system: TK-10 renal

Row | Compound | TGI (IGROV1 ovarian) [µM] | TGI (T-47D breast) [µM] | TGI (LOX IMVI melanoma) [µM] | TGI (MDA-N) [µM] | TGI (EKVX NSCLC) [µM] | TGI (M14 melanoma) [µM] | TGI (SNB-75 CNS) [µM] | TGI (SF-295 CNS) [µM] | TGI (SF-539 CNS) [µM] | TGI (SNB-19 CNS) [µM] | TGI (HCT-116 colon) [µM] | TGI (UO-31 renal) [µM] | TGI (786-0 renal) [µM] | TGI (SF-268 CNS) [µM] | TGI (OVCAR-3 ovarian) [µM] | TGI (OVCAR-4 ovarian) [µM] | TGI (KM12 colon) [µM] | TGI (HOP-62 NSCLC) [µM] | TGI (OVCAR-8 ovarian) [µM] | TGI (TK-10 renal) [µM]
1 | O=C(Nc1sccc1S(=O)(=O)c1ccccc1)c1ccccc1 | > 100 | > 100 | > 100 | > 100 | > 100 | > 100 | > 100 | > 100 | > 100 | > 100 | > 100 | > 100 | > 100 | > 100 | > 100 | > 100 | > 100 | > 100 | > 100 | > 100
2 | C=CCN(c1cc(OC)c2[nH]c(C(=O)OCC)c(C)c2c1[N+](=O)[O-])S(C)(=O)=O | > 100 | 48.6 | 39.4 | 52.7 | 46.2 | > 100 | 60 | > 100 | > 100 | > 100 | 58.3 | 74.8 | > 100 | > 100 | 80.2 | > 100 | 66.2 | > 100 | > 100 | > 100
3 | C=CCc1cc(C(Cc2ccccc2)NC(C)C)cc(OCc2ccccc2)c1OCc1ccccc1 (stereo not given) | 29.9 | 29.2 | 31.7 | 25.8 | 30 | 28.8 | 26.2 | 31.6 | 29 | 28.8 | 31.2 | 21.7 | 30.7 | 30 | 30.4 | 33.1 | 40.2 | 30.3 | 31.5 | 30.8
4 | CC(C)(C)C1=CC(=C2C=Cc3ccccc3O2)C=C(C(C)(C)C)C1=O | > 52.8 | 9.97 | 12.9 | 7.39 | 43.6 | 10.6 | 40 | 18.9 | 20 | > 50.7 | 11.4 | 21.9 | 9.55 | > 34.3 | 7.71 | 16.8 | 9.7 | 20.9 | > 51.8 | 16.5
5 | CC(C)(C)OC(=O)CN1CCN(CC(=O)N2CCN(C(=O)OCc3ccccc3)CC2)CCN(CC(=O)OC(C)(C)C)CCN(CC(=O)N2CCN(C(=O)OCc3ccccc3)CC2)CC1 | 2.65 | 18.8 | 2.93 | 7.65 | 34.3 | 14.3 | 4.75 | 13.8 | 6.85 | 14.6 | > 38 | 25.5 | 7.42 | 7.34 | 13.1 | 16.2 | 3.06 | 16.4 | 16.8 | 15.9
6 | CC1CN=C(c2cccc(-c3nc(-c4cccc(C5=NCC(C)N5)c4)nc(N(C)C)n3)c2)N1 (stereo not given) | 18.4 | 15.1 | 2.6 | 4.08 | 8.64 | 13 | 5.13 | 14.3 | 1.66 | 5.27 | 2.49 | 13.4 | 5.67 | 10.7 | 4.19 | 2.72 | 7.72 | 5.9 | 11.6 | 9.76
7 | CN(C)c1cccc2c1C(=O)C=CC21CCc2ccc(N(C)C)c3c(N(C)C)ccc1c23 (stereo not given) | 31.2 | > 100 | 31.9 | 28.6 | 63.1 | 29.1 | 19.2 | 43.1 | 35.4 | 33.4 | 22.9 | 24.1 | 26.1 | 33.8 | 24.8 | 83.4 | 30.2 | 32.8 | 53.2 | 28.1
8 | CCOC(=O)C(O)(C(=O)OCC)c1cc(C(C)(C)C)c(O)c(C(C)(C)C)c1 | > 100 | > 100 | > 100 | > 100 | > 100 | > 100 | > 100 | 52.5 | 87.8 | 74.6 | > 100 | > 100 | > 100 | > 100 | > 100 | > 100 | > 100 | > 100 | > 100 | > 100
9 | O=S(=O)(/N=C(\NO)Nc1ccc(Cl)cc1)c1ccccc1 | 62.4 | > 83.3 | 33.6 | 27.7 | 26.1 | 48.6 | 19.4 | > 100 | > 30.6 | > 89.3 | 24.3 | 27.5 | 16.9 | > 70.3 | 8.89 | > 61.2 | > 100 | > 100 | > 75 | > 61.6
10 | Nc1c2c(nc3ccccc13)-c1ccccc1NCCC2 | > 100 | 77.9 | 35.5 | 39 | > 100 | 33.3 | > 100 | 50.8 | 43.9 | > 100 | 94.3 | 88.3 | 32.4 | > 100 | > 100 | > 100 | > 100 | 54.2 | > 100 | 49.6
11 | CCN(CC)CCCNc1[nH]ncc2c(C)c3nc4ccc(OC)cc4c3cc12 | 2.91 | 3.36 | 0.829 | 1.93 | 10.9 | 3.26 | 2.1 | 6.48 | 1.16 | 1.21 | 1.41 | 15 | 2.28 | 3.52 | 2.99 | 2.75 | 4.49 | 4.16 | 2.01 | 9.16
12 | C=CCOc1ccccc1C1(O)c2ccccc2C2=NCCCN21 (stereo not given) | 44.7 | > 100 | > 100 | > 100 | > 100 | 39.8 | > 100 | 71.6 | 39.5 | 79.5 | > 100 | > 100 | > 100 | > 100 | 59.7 | > 100 | > 100 | 54.1 | 34.6 | > 100
13 | O=[N+]([O-])/C(C(Cl)=C(Cl)Cl)=C(\N1CCCCC1)n1nnc2ccccc21 | 34.1 | > 100 | 31.7 | 44.1 | 26.4 | 32.5 | > 65.5 | 33.3 | 33.6 | 40.3 | 33.4 | 34.3 | 33.5 | 45 | 32.6 | > 100 | > 88 | 48.8 | 42.6 | 35.5
14 | CC[P+]1(c2ccccc2)[C@@H](C)CC[C@@H]1C | > 100 | > 100 | > 100 | > 100 | > 100 | > 100 | > 100 | > 100 | > 100 | > 100 | > 100 | > 100 | > 100 | > 100 | > 100 | > 100 | > 100 | > 100 | > 100 | > 100
15 | Cc1ccc(O)c(C2=CC(c3cccc(Br)c3)SC(N)=N2)c1 (stereo not given) | 46.5 | 87.9 | 34.7 | 50.1 | 59.9 | 62.9 | 61.3 | 42.2 | 50.3 | 32.4 | 35.9 | 65.3 | 74.4 | 88.9 | > 100 | > 100 | 82.3 | 52 | > 100 | 46.1
16 | COc1ccc2c3c1OC1C34CCN(C)C(C2)C4=CC(I)C1(OC)OC (stereo not given) | 22.2 | 48.8 | 23.9 | 18.8 | 33.8 | 29.6 | 34.5 | > 100 | 40.6 | 30.5 | 14.6 | 28.5 | 14 | 42.8 | 18.5 | 30 | 28.3 | 20.8 | 16.1 | 27.8
17 | Nc1ccc(-c2nc3ccccc3s2)cc1C#Cc1ccccc1 | 28.4 | > 100 | 36 | 35.8 | 39.8 | 30.6 | 59.7 | 47.1 | 35.4 | 72.1 | 27.4 | 36.7 | 32.3 | 54.2 | 33.1 | 44 | 37.9 | 28.2 | 42.4 | 30.3
